Measured values as given in PubChem BioAssay (NCI).
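Exposure lasted 48 hours, with cells grown in 96-well plates and compounds tested at five concentrations. Abbreviation: GI50, concentration required for 50% inhibition of growth. TGI: total growth inhibition.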

Experiments:
Assay in all cases: NCI anticancer screen, dose series, 48 h
OVCAR-5 ovarian = system: OVCAR-5 ovarian
A498 renal = system: A498 renal
T-47D breast = system: T-47D breast
SW-620 colon = system: SW-620 colon
BT-549 breast = system: BT-549 breast
RPMI-8226 leukemia = system: RPMI-8226 leukemia
SF-539 CNS = system: SF-539 CNS
MOLT-4 leukemia = system: MOLT-4 leukemia
SF-295 CNS = system: SF-295 CNS
HOP-92 NSCLC = system: HOP-92 NSCLC
COLO 205 colon = system: COLO 205 colon
SF-268 CNS = system: SF-268 CNS
UACC-257 melanoma = system: UACC-257 melanoma
RXF 393 renal = system: RXF 393 renal
U251 CNS = system: U251 CNS
LOX IMVI melanoma = system: LOX IMVI melanoma
MDA-MB-231 breast = system: MDA-MB-231 breast
HCT-116 colon = system: HCT-116 colon
NCI-H23 lung = system: NCI-H23 lung
SR leukemia = system: SR leukemia
SN12C renal = system: SN12C renal
HCC-2998 colon = system: HCC-2998 colon
PC-3 prostate = system: PC-3 prostate
HL-60(TB) leukemia = system: HL-60(TB) leukemia
ACHN renal = system: ACHN renal
786-0 renal = system: 786-0 renal
NCI-H522 lung = system: NCI-H522 lung
HCT-15 colon = system: HCT-15 colon
SK-OV-3 ovarian = system: SK-OV-3 ovarian
CCRF-CEM leukemia = system: CCRF-CEM leukemia
A549 NSCLC = system: A549 NSCLC
OVCAR-3 ovarian = system: OVCAR-3 ovarian
SK-MEL-28 melanoma = system: SK-MEL-28 melanoma
TK-10 renal = system: TK-10 renal
HS 578T breast = system: HS 578T breast
MCF7 breast = system: MCF7 breast
OVCAR-8 ovarian = system: OVCAR-8 ovarian
OVCAR-4 ovarian = system: OVCAR-4 ovarian
EKVX NSCLC = system: EKVX NSCLC
CAKI-1 renal = system: CAKI-1 renal
HT29 colon = system: HT29 colon
NCI-H226 lung = system: NCI-H226 lung
HOP-62 NSCLC = system: HOP-62 NSCLC
SK-MEL-2 melanoma = system: SK-MEL-2 melanoma
UO-31 renal = system: UO-31 renal
M14 melanoma = system: M14 melanoma
UACC-62 melanoma = system: UACC-62 melanoma
IGROV1 ovarian = system: IGROV1 ovarian
MDA-MB-435 = system: MDA-MB-435
NCI-H460 lung = system: NCI-H460 lung
MALME-3M melanoma = system: MALME-3M melanoma
DU-145 prostate = system: DU-145 prostate
K-562 leukemia = system: K-562 leukemia
SNB-19 CNS = system: SNB-19 CNS
KM12 colon = system: KM12 colon
SNB-75 CNS = system: SNB-75 CNS
SK-MEL-5 melanoma = system: SK-MEL-5 melanoma

In the case of `CC(c1ccccc1)N1C(=O)CSC1=S` (stereo not drawn), the GI50 (OVCAR-5 ovarian) is reported as 4050 nM, the TGI (OVCAR-5 ovarian) is reported as 49400 nM and the GI50 (A498 renal) is reported as 7320 nM. The TGI (A498 renal) was 55300 nM, the GI50 (T-47D breast) was 4100 nM and the TGI (T-47D breast) was 70600 nM. The GI50 (SW-620 colon) was 418 nM, the TGI (SW-620 colon) was over 38500 nM and the GI50 (BT-549 breast) was 2460 nM. It also gave a TGI (BT-549 breast) of 36000 nM, a GI50 (RPMI-8226 leukemia) of 382 nM and a TGI (RPMI-8226 leukemia) of 34200 nM. The GI50 (SF-539 CNS) was 228 nM, the GI50 (MOLT-4 leukemia) was 1750 nM and the TGI (MOLT-4 leukemia) was over 100000 nM. The GI50 (SF-295 CNS) was 2860 nM, the GI50 (HOP-92 NSCLC) was 4290 nM and the TGI (HOP-92 NSCLC) was over 100000 nM. It also gave a GI50 (COLO 205 colon) of 300 nM, a TGI (COLO 205 colon) of 1080 nM and a GI50 (SF-268 CNS) of 1010 nM. It also gave a TGI (SF-268 CNS) of 45700 nM, a GI50 (UACC-257 melanoma) of 3220 nM and a TGI (UACC-257 melanoma) of 33800 nM. The GI50 (RXF 393 renal) was 747 nM, the TGI (RXF 393 renal) was 6270 nM and the GI50 (U251 CNS) was 400 nM. The TGI (U251 CNS) was 16500 nM, the GI50 (LOX IMVI melanoma) was 446 nM and the TGI (LOX IMVI melanoma) was 19500 nM. The GI50 (MDA-MB-231 breast) was 463 nM, the TGI (MDA-MB-231 breast) was over 23800 nM and the GI50 (HCT-116 colon) was 137 nM. The TGI (HCT-116 colon) was 1380 nM, the GI50 (NCI-H23 lung) was 6820 nM and the TGI (NCI-H23 lung) was over 46000 nM. For the same molecule, the GI50 (SR leukemia) was 109 nM, the TGI (SR leukemia) was over 100000 nM and the GI50 (SN12C renal) was 701 nM. For the same molecule, the TGI (SN12C renal) was over 100000 nM, the GI50 (HCC-2998 colon) was 3080 nM and the TGI (HCC-2998 colon) was 8860 nM. For the same molecule, the GI50 (PC-3 prostate) was 989 nM, the TGI (PC-3 prostate) was over 100000 nM and the GI50 (HL-60(TB) leukemia) was 140 nM. The TGI (HL-60(TB) leukemia) was 1450 nM, the GI50 (ACHN renal) was 3610 nM and the TGI (ACHN renal) was over 100000 nM. For the same molecule, the GI50 (786-0 renal) was 628 nM, the TGI (786-0 renal) was over 100000 nM and the GI50 (NCI-H522 lung) was 114 nM. The TGI (NCI-H522 lung) was 3810 nM, the GI50 (HCT-15 colon) was 659 nM and the TGI (HCT-15 colon) was over 100000 nM. The GI50 (SK-OV-3 ovarian) was 2390 nM, the TGI (SK-OV-3 ovarian) was over 81800 nM and the GI50 (CCRF-CEM leukemia) was 941 nM. For the same molecule, the TGI (CCRF-CEM leukemia) was over 100000 nM, the GI50 (A549 NSCLC) was 4670 nM and the TGI (A549 NSCLC) was over 59100 nM. The GI50 (OVCAR-3 ovarian) was 232 nM, the TGI (OVCAR-3 ovarian) was 1230 nM and the GI50 (SK-MEL-28 melanoma) was 3520 nM. The TGI (SK-MEL-28 melanoma) was 54100 nM, the GI50 (TK-10 renal) was 8780 nM and the TGI (TK-10 renal) was over 93300 nM. For the same molecule, the GI50 (HS 578T breast) was 779 nM, the GI50 (MCF7 breast) was 58.3 nM and the TGI (MCF7 breast) was 13700 nM. The GI50 (OVCAR-8 ovarian) was 2000 nM, the TGI (OVCAR-8 ovarian) was over 100000 nM and the GI50 (OVCAR-4 ovarian) was 1360 nM. The TGI (OVCAR-4 ovarian) was over 100000 nM, the GI50 (EKVX NSCLC) was 7570 nM and the TGI (EKVX NSCLC) was over 100000 nM. For the same molecule, the GI50 (CAKI-1 renal) was 1330 nM, the GI50 (HT29 colon) was 362 nM and the GI50 (NCI-H226 lung) was 3560 nM. It also gave a TGI (NCI-H226 lung) of over 100000 nM, a GI50 (HOP-62 NSCLC) of 526 nM and a TGI (HOP-62 NSCLC) of 14400 nM. For the same molecule, the GI50 (SK-MEL-2 melanoma) was 604 nM, the TGI (SK-MEL-2 melanoma) was 12400 nM and the GI50 (UO-31 renal) was 5730 nM. For the same molecule, the TGI (UO-31 renal) was over 83500 nM, the GI50 (M14 melanoma) was 332 nM and the TGI (M14 melanoma) was 2990 nM. The GI50 (UACC-62 melanoma) was 330 nM, the TGI (UACC-62 melanoma) was 10700 nM and the GI50 (IGROV1 ovarian) was 129 nM. It also gave a TGI (IGROV1 ovarian) of 697 nM, a GI50 (MDA-MB-435) of 319 nM and a TGI (MDA-MB-435) of 7210 nM. For the same molecule, the GI50 (NCI-H460 lung) was 970 nM, the GI50 (MALME-3M melanoma) was 7390 nM and the TGI (MALME-3M melanoma) was over 100000 nM. For the same molecule, the GI50 (DU-145 prostate) was 379 nM, the TGI (DU-145 prostate) was 3660 nM and the GI50 (K-562 leukemia) was 346 nM. For the same molecule, the TGI (K-562 leukemia) was over 100000 nM, the GI50 (SNB-19 CNS) was 302 nM and the TGI (SNB-19 CNS) was 1100 nM. It also gave a GI50 (KM12 colon) of 49.5 nM, a TGI (KM12 colon) of 438 nM and a GI50 (SNB-75 CNS) of 2890 nM. It also gave a TGI (SNB-75 CNS) of over 22200 nM, a GI50 (SK-MEL-5 melanoma) of 1860 nM and a TGI (SK-MEL-5 melanoma) of 9830 nM.
